Measurements reported in ChEMBL document CHEMBL1201862, “PubChem BioAssay data set” (2004).
Each block holds one compound with its values, some of them ahead of it. Calls of active or inactive are those of the source.

Assays:
[1] = target: T1, Hepatocyte nuclear factor 4-alpha (Homo sapiens, UniProt P41235); assay type: functional, cell-based;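 also: biochemical luminescence-based dose-response counterscreen measuring inhibition of HNF4 dimerization, run alongside a screen for blockers of ABHD5–perilipin-5 interaction; split luciferase complementation of HNF4 fusion proteins in cell lysate measuring dimerization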
T1 sequence (P41235 whole entry): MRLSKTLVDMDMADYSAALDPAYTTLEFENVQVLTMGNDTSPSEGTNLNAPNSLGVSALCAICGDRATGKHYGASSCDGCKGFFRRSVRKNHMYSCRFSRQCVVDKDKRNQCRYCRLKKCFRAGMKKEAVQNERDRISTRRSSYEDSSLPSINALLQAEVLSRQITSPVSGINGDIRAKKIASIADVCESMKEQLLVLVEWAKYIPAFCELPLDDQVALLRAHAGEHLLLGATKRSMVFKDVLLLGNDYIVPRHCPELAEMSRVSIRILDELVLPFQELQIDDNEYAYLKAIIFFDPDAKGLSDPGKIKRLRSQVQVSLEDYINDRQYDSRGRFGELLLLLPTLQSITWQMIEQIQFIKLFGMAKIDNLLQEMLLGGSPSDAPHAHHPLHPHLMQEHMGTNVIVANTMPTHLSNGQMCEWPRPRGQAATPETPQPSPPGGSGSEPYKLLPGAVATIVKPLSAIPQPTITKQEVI

cells [2] = assay type: functional, cell-based
cells [3] = assay type: functional, cell-based; remark: listed apart in the source
[4] = target: T2, Trace amine-associated receptor 1 (Homo sapiens, UniProt Q96RJ0); experiment: Counterscreen for agonists of the human trace amine associated receptor 1 (hTAAR1): Fluorescence-based cell-based high throughput dose response assay to identify hTAAR1 agonist that also desensitize TAAR1 receptor response.; assay type: functional
T2 sequence (Q96RJ0 whole entry): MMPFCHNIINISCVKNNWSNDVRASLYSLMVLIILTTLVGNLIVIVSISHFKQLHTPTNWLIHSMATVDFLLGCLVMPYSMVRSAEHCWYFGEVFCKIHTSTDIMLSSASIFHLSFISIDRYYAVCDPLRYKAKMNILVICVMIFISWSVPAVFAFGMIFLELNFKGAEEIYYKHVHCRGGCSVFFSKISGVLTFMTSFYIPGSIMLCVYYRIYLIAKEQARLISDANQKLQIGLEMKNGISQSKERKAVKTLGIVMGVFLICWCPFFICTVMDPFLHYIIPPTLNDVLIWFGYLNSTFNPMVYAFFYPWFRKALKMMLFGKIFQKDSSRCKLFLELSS

[5] = target: T2, Trace amine-associated receptor 1; experiment: Fluorescence-based cell-based high throughput dose response assay to identify agonists of the human trace amine associated receptor 1 (TAAR1).; assay type: functional
CHO-K1 = experiment: (§1) Counterscreen for antagonists of the orexin 1 receptor (OX1R; HCRTR1): Homogeneous time resolved fluorescence (HTRF)-based cell-based dose response assay to identify antagonists of the parental CHO-K1 cell line. [Related pubchem assays (depositor defined):AID434989, AID435008, AID463079, AID485270, AID492963, AID492964, AID492965, AID493232, AID504699, AID504701]; assay type: functional; conditions: Cricetulus griseus
Orexin receptor type 2 [6] = target: T3, Orexin receptor type 2 (Homo sapiens, UniProt O43614); experiment: Counterscreen assay for antagonists of the orexin 1 receptor (OX1R; HCRTR1): Fluorescence-based cell-based dose response assay for antagonists of the orexin 2 receptor (OX2R; HCRTR2), run by assay provider.; assay type: functional
T3 sequence (O43614 whole entry): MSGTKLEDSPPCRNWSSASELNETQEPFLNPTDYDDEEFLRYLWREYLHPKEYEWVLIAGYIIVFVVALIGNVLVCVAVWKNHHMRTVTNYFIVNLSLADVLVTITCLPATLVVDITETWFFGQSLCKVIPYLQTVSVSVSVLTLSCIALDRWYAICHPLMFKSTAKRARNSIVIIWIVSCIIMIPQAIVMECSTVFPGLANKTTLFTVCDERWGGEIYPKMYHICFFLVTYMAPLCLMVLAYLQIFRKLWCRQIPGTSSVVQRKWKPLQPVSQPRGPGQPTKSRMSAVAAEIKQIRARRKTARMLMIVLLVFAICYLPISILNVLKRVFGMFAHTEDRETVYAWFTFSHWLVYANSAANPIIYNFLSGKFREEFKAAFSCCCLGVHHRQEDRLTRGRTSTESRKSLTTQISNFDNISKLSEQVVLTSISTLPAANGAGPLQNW

[7] = target: T4, Orexin/Hypocretin receptor type 1 (Homo sapiens, UniProt O43613); experiment: (§2) Fluorescence-based cell-based high throughput dose response assay for antagonists of the orexin 1 receptor (OX1R; HCRTR1). [Related pubchem assays (depositor defined):AID434989, AID435008, AID463079, AID485270, AID492963, AID492964, AID492965, AID493232, AID504717, AID504718]; assay type: functional
T4 sequence (O43613 whole entry): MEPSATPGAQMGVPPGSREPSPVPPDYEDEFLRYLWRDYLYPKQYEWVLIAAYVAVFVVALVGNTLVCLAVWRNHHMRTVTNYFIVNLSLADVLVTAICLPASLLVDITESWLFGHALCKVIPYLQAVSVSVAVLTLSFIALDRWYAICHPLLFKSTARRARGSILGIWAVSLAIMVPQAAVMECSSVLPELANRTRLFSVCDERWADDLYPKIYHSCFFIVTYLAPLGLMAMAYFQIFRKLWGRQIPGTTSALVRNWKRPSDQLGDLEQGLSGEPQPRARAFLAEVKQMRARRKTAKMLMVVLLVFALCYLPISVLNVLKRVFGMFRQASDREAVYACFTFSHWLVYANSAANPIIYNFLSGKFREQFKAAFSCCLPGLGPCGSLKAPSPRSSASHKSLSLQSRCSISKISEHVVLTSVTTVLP

Orexin receptor type 2 [8] = target: T3, Orexin receptor type 2; experiment: Counterscreen assay for antagonists of the orexin 1 receptor (OX1R; HCRTR1): Homogeneous Time Resolved Fluorescence (HTRF)-based cell-based dose response assay for antagonists of the orexin 2 receptor (OX2R; HCRTR2), run by assay provider.; assay type: functional
[9] = as §1, with “Fluorescence-based” for “Homogeneous time resolved fluorescence (HTRF)-based”, “cell-based high throughput” for “cell-based”, “CHO” for “CHO-K1”; assay type: functional
[10] = target: T4, Orexin/Hypocretin receptor type 1; experiment: as §2, with “Homogeneous Time Resolved Fluorescence (HTRF)-based” for “Fluorescence-based”; assay type: functional
HeLa = experiment: HeLa cell cytotoxicity, dose response, cytotoxicity control, ATP luminescence, cherry-pick samples (AID 687004); assay type: functional, cell-based; conditions: Homo sapiens
[11] = inhibitors of HIV Env-driven cell fusion, dose response, cherry-pick (AID 652057); assay type: functional, cell-based
[12] = ZM109 Env clade C HIV-1 fusion inhibitors, dose response, HeLa effector, CEM target cells, luciferase, cherry-pick (AID 652058); assay type: functional, cell-based
[13] = inhibitors of clade B AD8 Env fusion, dose response, cell-based, cherry-pick (AID 652062); assay type: functional;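 also: luciferase signal from cell-cell fusion driven by HIV-1 clade B AD8 Env; potency is for inhibitors of fusion seen as a drop in luminescence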

IC50 [1]: 9.98 µM (active)
SMILES: N#Cc1ccc(C(C(=O)Nc2ccc3c(c2)OCCO3)n2c(=O)c(-c3ccco3)nc3ccccc32)cc1 (stereo not given)

SMILES: COc1ccc(/C=N/CC2COc3ccccc3O2)cc1OC (stereo not given)
IC50 (cells [2]): > 29.9 µM (inactive) | EC50 (cells [3]): > 29.9 µM (inactive) | IC50 [4]: 18.9 µM (inactive) | EC50 [5]: 1.44 µM (active)

SMILES: Cc1cc(C)n2nc(-c3cccc(Br)c3)cc2n1
IC50 (CHO-K1): > 66.2 µM (inactive) | IC50 (Orexin receptor type 2 [6]): > 88.8 µM (inactive) | IC50 [7]: 9.69 µM (active) | IC50 (Orexin receptor type 2 [8]): > 50 µM (inactive) | IC50 [9]: > 49.7 µM (inactive) | IC50 [10]: 2.05 µM (active)

SMILES: Cc1noc(C)c1COC(=O)c1ccc2c(c1)S(=O)(=O)c1ccccc1C2=O
IC50 (CHO-K1): 18.5 µM (inactive) | IC50 (Orexin receptor type 2 [6]): > 88.8 µM (inactive) | IC50 [7]: 4 µM (active) | IC50 (Orexin receptor type 2 [8]): > 50 µM (inactive) | IC50 [9]: > 49.7 µM (inactive) | IC50 [10]: 1.2 µM (active)

SMILES: CCCNC(=O)C[C@@H]1CC[C@@H]2[C@H](COc3ccc(NC(=O)CCC)cc3C(=O)N2C)O1
AC50 (HeLa): 9.9 µM (active)

IC50 [1]: 4 µM (active)
SMILES: Cc1ccc(O)c(C(=O)C=Cc2ccccc2)c1

SMILES: C#CCOC(=O)CCC(=O)NCCc1ccccc1
IC50 (cells [2]): > 29.9 µM (inactive) | EC50 (cells [3]): > 29.9 µM (inactive) | IC50 [4]: 1.66 µM (active) | EC50 [5]: 3.07 µM (active)

SMILES: C[C@H]1CN([C@@H](C)CO)C(=O)Cc2cc(NC(=O)Nc3ccccc3)ccc2O[C@H]1CN(C)S(=O)(=O)c1cccs1
AC50 [11]: 1.36 µM (active) | AC50 [12]: 1.55 µM (active) | AC50 [13]: 8.52 µM (active)

SMILES: Cc1nnc(SCC(=O)NCCC2=CCCCC2)nc1O
IC50 (cells [2]): > 29.9 µM (inactive) | EC50 (cells [3]): > 29.9 µM (inactive) | IC50 [4]: 7.22 µM (active) | EC50 [5]: 1.25 µM (active)
